Literature values in patent publication US9198988B2, “Nanoparticulate manganese MRI contrast agents” (Kent State University, priority 2011, dated 2015).

Tests used:
[1] = commercial MRI contrast agents
[2] = commercial MRI contrast agents; remark: listed apart in the source

O=C([O-])CN1CCN(CC(=O)[O-])CCN([C@H](CO)[C@H](O)CO)CCN(CC(=O)[O-])CC1.[Gd+3] (racemic) [Gadovist ®]
r1 (relaxivity) [1]: 5.3 mM⁻¹ s⁻¹
LogKGdL (stability constant) [2]: 20.8

CNC[C@H](O)[C@@H](O)[C@H](O)[C@H](O)CO.O=C([O-])CN1CCN(CC(=O)[O-])CCN(CC(=O)O)CCN(CC(=O)[O-])CC1.[Gd+3] [Dotarem ®]
r1 (relaxivity) [1]: 4.2 mM⁻¹ s⁻¹
LogKGdL (stability constant) [2]: 25.3

CNC[C@H](O)[C@@H](O)[C@H](O)[C@H](O)CO.CNC[C@H](O)[C@@H](O)[C@H](O)[C@H](O)CO.O=C([O-])CN(CCN(CC(=O)[O-])CC(=O)O)CCN(CC(=O)[O-])CC(=O)O.[Gd+3] [Magnevist ®]
r1 (relaxivity) [1]: 4.3 mM⁻¹ s⁻¹
LogKGdL (stability constant) [2]: 22.2

CNC[C@H](O)[C@@H](O)[C@H](O)[C@H](O)CO.CNC[C@H](O)[C@@H](O)[C@H](O)[C@H](O)CO.O=C([O-])CN(CCN(CC(=O)[O-])CC(=O)O)CCN(CC(=O)O)C(COCc1ccccc1)C(=O)[O-].[Gd+3] (centres unmarked) [MultiHance]
r1 (relaxivity) [1]: 6.7 mM⁻¹ s⁻¹
LogKGdL (stability constant) [2]: 18.4

CNC(=O)CN(CCN(CCN(CC(=O)[O-])CC(=O)NC)CC(=O)[O-])CC(=O)[O-].[Gd+3] [Omniscan ®]
r1 (relaxivity) [1]: 4.6 mM⁻¹ s⁻¹
LogKGdL (stability constant) [2]: 16.8

COCCNC(=O)CN(CCN(CCN(CC(=O)[O-])CC(=O)NCCOC)CC(=O)[O-])CC(=O)[O-].[Gd+3] [OptiMARK]
r1 (relaxivity) [1]: 5.2 mM⁻¹ s⁻¹
LogKGdL (stability constant) [2]: 16.8

CCOc1ccc(CC(CN(CCN(CC(=O)[O-])CC(=O)[O-])CC(=O)[O-])N(CC(=O)[O-])CC(=O)[O-])cc1.[Gd+3].[Na+].[Na+] (centres unmarked) [Primovist]
r1 (relaxivity) [1]: 7.3 mM⁻¹ s⁻¹
LogKGdL (stability constant) [2]: 23.5

CC(O)CN1CCN(CC(=O)[O-])CCN(CC(=O)[O-])CCN(CC(=O)[O-])CC1.[Gd+3] (centres unmarked) [ProHance ®]
r1 (relaxivity) [1]: 4.4 mM⁻¹ s⁻¹

O=C([O-])CN(CCN(CC(=O)[O-])CC(COP(=O)([O-])OC1CCC(c2ccccc2)(c2ccccc2)CC1)N(CC(=O)[O-])CC(=O)[O-])CC(=O)[O-].[Gd+3].[Na+].[Na+].[Na+] (centres unmarked) [Vasovist]
r1 (relaxivity) [1]: 19 mM⁻¹ s⁻¹
LogKGdL (stability constant) [2]: 23.2
